# Patent publication US20030121069A1, “Disruption of the phosphodiesterase 10 gene” (Pfizer Inc., priority 2001, published 2003)
# Read-outs that look alike come from different tables or passages of the source.
# Tests used:
# [1] = test system: PDE10A+/+ and −/− mice; test: Conditioned avoidance responding in PDE10A+/+ and −/− mice; conditions: for ED50: Mus musculus
# From the text: In the conditioned avoidance paradigm, animals are trained to move from a dark chamber in a shuttle box to a lighted chamber upon presentation of a conditioned stimulus in order to avoid a foot shock.
# The conditioned avoidance shuttle chambers consist of individual Plexiglas behavior chambers (Coulbourn Instruments); each chamber divided by a guillotine door into two sides enclosed in sound attenuating cabinets. The Plexiglas chambers are fitted with metal grid floors, which are equipped with scrambled/constant current shockers. Mice are trained to avoid the onset of footshock (0.6 miliampere) by moving to the opposite side of the chamber upon activation of house lights, que lights, and the opening of the guillotine door, all of which occur 5 seconds prior to the foot shock. A computer program is used to record the number of successful avoidance responses (animals cross before onset of shock), as well as the number of escapes (where animals receive the foot shock and then cross), escape failures (where animals receive the foot shock yet still fail to cross), and the latencies to avoid (max 5 sec.) or escape (max.10 sec.) Thirty trials are completed per daily session, and inter-trial intervals are 15 seconds with the guillotine door closed. […] Vehicle treatment is performed one day every week and statistical analysis is done comparing each drug treatment on separate days vs. the vehicle treatment that week. Testing is performed during the lights on period of the light/dark cycle, typically between 8 am and 11 am. The data is analyzed using a paired t-test.
# [2] = biological target: T1, PDE10A (Mus musculus, UniProt Q8CA95); test: cGMP level in striatal and cortical extracts of PDE10A+/+ and −/− mice after Papaverine (enzyme immunoassay); format: in vivo; conditions: PDE10A+/+ mice, 32 mg/kg intraperitoneally, 15 minutes, vs vehicle
# T1 construct: from tissue; host or cells: mouse brain in vivo (striatum and cortex); DBA/1LacJ-derived PDE10A +/+ and −/− mice
# T1 sequence (Q8CA95 1-779 isoform Q8CA95-2): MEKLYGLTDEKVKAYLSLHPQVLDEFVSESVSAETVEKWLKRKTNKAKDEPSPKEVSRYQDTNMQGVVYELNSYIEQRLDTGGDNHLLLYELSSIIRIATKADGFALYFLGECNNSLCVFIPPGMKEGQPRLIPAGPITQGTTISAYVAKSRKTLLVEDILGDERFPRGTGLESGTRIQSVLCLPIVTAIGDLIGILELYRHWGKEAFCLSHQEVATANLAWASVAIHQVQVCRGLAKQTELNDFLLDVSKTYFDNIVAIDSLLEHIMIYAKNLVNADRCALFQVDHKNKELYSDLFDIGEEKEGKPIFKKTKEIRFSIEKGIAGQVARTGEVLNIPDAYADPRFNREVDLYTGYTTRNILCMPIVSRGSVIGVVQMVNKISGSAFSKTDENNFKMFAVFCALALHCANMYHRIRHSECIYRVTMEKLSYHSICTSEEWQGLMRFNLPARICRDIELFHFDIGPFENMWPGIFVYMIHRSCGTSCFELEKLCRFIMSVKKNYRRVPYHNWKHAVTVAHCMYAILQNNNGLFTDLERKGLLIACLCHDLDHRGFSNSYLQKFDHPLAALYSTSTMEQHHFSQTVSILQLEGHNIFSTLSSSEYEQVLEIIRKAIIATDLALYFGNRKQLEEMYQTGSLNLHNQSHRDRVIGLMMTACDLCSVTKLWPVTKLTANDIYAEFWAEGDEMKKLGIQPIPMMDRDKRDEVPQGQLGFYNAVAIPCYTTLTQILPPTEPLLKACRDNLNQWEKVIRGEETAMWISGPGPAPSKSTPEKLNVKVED
# Experimental: (§1) Fifteen minutes afterwards, mice were euthanized by focused-beam microwave irradiation of the head (2 second exposure in a Litton Systems 70/50 microwave, model BN-K2, General Medical Engineering Corp., Peabody, Mass.) to prevent enzymatic degradation of cyclic nucleotides. Striatal and cortical regions were isolated and stored at −80° C. until analysis. Samples were homogenized in 0.5 N HCl and then centrifuged at 20,000×g for 30 minutes. The cGMP concentrations in the supernatants were determined using enzyme immunoassay kits (Cayman Chemical, Ann Arbor, Mich., USA) according to the manufacturer's instructions.
# [3] = test system: PDE10A; test: as above; format: in vivo; conditions: PDE10A −/− mice, 32 mg/kg intraperitoneally, 15 minutes, vs vehicle
# Experimental: as §1
# [4] = test system: PDE10A; conditions: cited from earlier work
# [5] = read-out: ED50, inhibition of conditioned avoidance responding, PDE10A+/+ mice
Compound,"ED50 ([1]; read-out: ED50, inhibition of conditioned avoidance responding, PDE10A −/− mice)","ED50 [1, 5]","inhibition of conditioned avoidance responding ([1]; PDE10A −/− mice, doses up to 56 mg/kg)","effect on escape failures ([1]; PDE10A+/+ mice, highest dose tested (56 mg/kg))",cGMP level from striatal extracts [2],cGMP level in cortical extracts [2],striatal cGMP level [3],Vmax for cGMP over cAMP [4],Km ([4]; read-out: Km (affinity of PDE10A for substrate))
O=C(CCCN1CCC(O)(c2ccc(Cl)cc2)CC1)c1ccc(F)cc1 [Haloperidol],0.29 mg/kg,0.21 mg/kg,–,–,–,–,–,–,–
COc1ccc(Cc2nccc3cc(OC)c(OC)cc23)cc1OC [Papaverine],–,20.7 mg/kg,failed to inhibit,no effect,more than two fold elevation,no effect,only a slight increase,–,–
"Nc1nc2c(ncn2[C@@H]2O[C@@H]3COP(=O)(O)O[C@H]3[C@H]2O)c(=O)[nH]1 [cGMP, cyclic guanine 3′5′-monophosphate]",–,–,–,–,–,–,–,approximately 5 fold,3 µM
